Ki data for 23 molecules are collected here from patent publication US20250222146A1, “Radiopharmaceuticals Targeting Somatostatin Receptor 2 and Uses Thereof” (RayzeBio, Inc., priority 2023, published 2025).

The structures appear in SMILES notation. Like-named read-outs stand apart in the source and are kept apart here. Numbered stars: 1 amine (or outer) side, 2 acyl side, 3 side chain; on linkers, the order of the positions; unused ones are H or OH. Square brackets hold non-standard residues; d marks the D form. Peptide text beside a SMILES is read from it. * marks the point of attachment. DOTA(Lu)NH(CH2)6NHCOCH2 = O=C(CN1CCN2CCN3CCN(CC1)CC(=O)[O][Lu]([O]C(=O)C2)[O]C(=O)C3)NCCCCCCNC(=O)C*; X6 = O=C(CN1CCN2CCN3CCN(CC1)CC(=O)[O][Lu]([O]C(=O)C2)[O]C(=O)C3)NCCOCCOCCOCCNC(=O)C*; DOTA(Lu) = O=C1CN2CCN3CCN(CC(=O)*)CCN(CC2)CC(=O)[O][Lu]([O]1)[O]C(=O)C3; Ala(piperidin-4-yl) = O=C([C@H](CC1CCN([*:3])CC1)N[*:1])[*:2]; dTrp(βS-Me) = C[C@@H](c1c[nH]c2ccccc12)[C@@H](N)C(=O)O; Tyr(3,5-F2) = N[C@@H](Cc1cc(F)c(O)c(F)c1)C(=O)O; dNMeW = CN[C@H](Cc1c[nH]c2ccccc12)C(=O)O; Dip = N[C@H](C(=O)O)C(c1ccccc1)c1ccccc1; NMehCys = CN[C@@H](CCS)C(=O)O; NMeK = CN[C@@H](CCCCN)C(=O)O

The assay addresses SSTR2 (Homo sapiens, UniProt P30874). As to the kind of experiment: SSTR binding affinity by radioligand binding competition assay ([125I]-Tyr11-Somatostatin, membrane extracts). The following applies: radioligand competition, [125I]-Tyr11-Somatostatin 0.1 nM, membrane extracts, Ki from IC50 by Cheng Prusoff.

Chain of SSTR2 (P30874 whole entry): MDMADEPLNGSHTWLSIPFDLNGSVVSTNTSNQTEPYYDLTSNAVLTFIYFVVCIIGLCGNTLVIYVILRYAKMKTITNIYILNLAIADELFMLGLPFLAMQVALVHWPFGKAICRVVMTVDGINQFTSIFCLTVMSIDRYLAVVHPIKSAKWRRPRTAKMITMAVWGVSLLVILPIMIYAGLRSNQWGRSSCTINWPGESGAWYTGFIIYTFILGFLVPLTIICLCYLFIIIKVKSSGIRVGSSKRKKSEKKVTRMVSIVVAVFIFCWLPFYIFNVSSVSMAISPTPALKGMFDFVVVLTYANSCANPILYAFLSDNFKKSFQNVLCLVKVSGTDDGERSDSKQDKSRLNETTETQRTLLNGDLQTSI

As a reminder, the Ki is a dissociation constant, usually derived from enzyme kinetics or from competition with a known ligand. As to `C[C@@H](O)[C@@H]1NC(=O)[C@H](CCCCN)NC(=O)[C@@H](Cc2c[nH]c3ccccc23)NC(=O)[C@H](Cc2ccc(O)cc2)NC(=O)[C@H](CCSCC(=O)NCCOCCOCCOCCNC(=O)CN2CCN3CCN4CCN(CC2)CC(=O)[O][Lu]([O]C(=O)C3)[O]C(=O)C4)N(C)C(=O)CNC1=O` [RB-0005286] (cyclo(G[NMehCys](X6)Y[dW]KT)), the Ki (read-out: SSTR2 Ki) fell in the range of 10 to 33.3 nM.

Consider `C[C@@H](O)[C@@H]1NC(=O)[C@H](CCCCN)NC(=O)[C@@H](Cc2c[nH]c3ccccc23)N(C)C(=O)[C@H](Cc2ccc(O)cc2)NC(=O)[C@H](CCSCC(=O)NCCCCCCNC(=O)CN2CCN3CCN4CCN(CC2)CC(=O)[O][Lu]([O]C(=O)C3)[O]C(=O)C4)N(C)C(=O)[C@H](Cc2ccccc2)NC1=O` [RB-0005330] (cyclo(F[NMehCys](DOTA(Lu)NH(CH2)6NHCOCH2)Y[dNMeW]KT)), for which the Ki (read-out: SSTR2 Ki) is under 1 nM. With `C[C@@H](O)[C@@H]1NC(=O)[C@H](CCCCN)NC(=O)[C@@H](Cc2c[nH]c3ccccc23)NC(=O)CNC(=O)[C@H](CCSCC(=O)NCCCCCCNC(=O)CN2CCN3CCN4CCN(CC2)CC(=O)[O][Lu]([O]C(=O)C3)[O]C(=O)C4)N(C)C(=O)[C@H](Cc2ccccc2)NC1=O` [RB-0005694] (cyclo(F[NMehCys](DOTA(Lu)NH(CH2)6NHCOCH2)G[dW]KT)), the Ki (read-out: SSTR2 Ki) was 1 to 3.33 nM. As for `C[C@@H]1NC(=O)[C@H](CCSCC(=O)NCCCCCCNC(=O)CN2CCN3CCN4CCN(CC2)CC(=O)[O][Lu]([O]C(=O)C3)[O]C(=O)C4)N(C)C(=O)[C@H](Cc2ccccc2)NC(=O)[C@H]([C@@H](C)O)NC(=O)[C@H](CCCCN)NC(=O)[C@@H](Cc2c[nH]c3ccccc23)NC1=O` [RB-0005696] (cyclo(A[dW]KTF[NMehCys](DOTA(Lu)NH(CH2)6NHCOCH2))), under “read-out: SSTR2 Ki”, the Ki lay within 10 to 33.3 nM. For the molecule `C[C@@H](O)[C@@H]1NC(=O)[C@H](CCCCN)NC(=O)[C@@H](Cc2c[nH]c3ccccc23)NC(=O)[C@H](Cc2ccc(O)cc2)NC(=O)[C@H](CCNC(=O)CCCCCNC(=O)CN2CCN3CCN4CCN(CC2)CC(=O)[O][Lu]([O]C(=O)C3)[O]C(=O)C4)N(C)C(=O)[C@H](Cc2ccccc2)NC1=O` [RB-0005717], where the note is “read-out: SSTR2 Ki”, the Ki was in the range of 10 to 33.3 nM. On to `C[C@@H](O)[C@@H]1NC(=O)[C@H](CCCCN)NC(=O)[C@@H](Cc2c[nH]c3ccccc23)NC(=O)[C@H](Cc2ccc(O)cc2)NC(=O)[C@H](CNC(=O)CCCCCNC(=O)CN2CCN3CCN4CCN(CC2)CC(=O)[O][Lu]([O]C(=O)C3)[O]C(=O)C4)N(C)C(=O)[C@H](Cc2ccccc2)NC1=O` [RB-0005728], for which, where the note is “read-out: SSTR2 Ki”, the inhibition constant Ki lay in the range of 3.33 to 10 nM. For `C[C@@H](O)[C@@H]1NC(=O)[C@H](CCCCN)NC(=O)[C@@H](Cc2c[nH]c3ccccc23)NC(=O)[C@H](Cc2ccc(O)cc2)NC(=O)[C@H](CNC(=O)[C@H](CC(=O)O)NC(=O)CCCCCNC(=O)CN2CCN3CCN4CCN(CC2)CC(=O)[O][Lu]([O]C(=O)C3)[O]C(=O)C4)N(C)C(=O)[C@H](Cc2ccccc2)NC1=O` [RB-0005730], the Ki (read-out: SSTR2 Ki) was under 1 nM.

`C[C@@H](O)[C@@H]1NC(=O)[C@H](CCCCN)NC(=O)[C@@H](Cc2c[nH]c3ccccc23)NC(=O)[C@H](Cc2ccc(O)cc2)NC(=O)[C@H](CNC(=O)C[C@H](NC(=O)CCCCCNC(=O)CN2CCN3CCN4CCN(CC2)CC(=O)[O][Lu]([O]C(=O)C3)[O]C(=O)C4)C(=O)O)N(C)C(=O)[C@H](Cc2ccccc2)NC1=O` [RB-0005732]: the Ki (read-out: SSTR2 Ki) was in the range of 33.3 to 100 nM. Take `C[C@@H](O)[C@@H]1NC(=O)[C@H](CCCCN)NC(=O)[C@@H](Cc2c[nH]c3ccccc23)NC(=O)[C@H](Cc2ccc(O)cc2)NC(=O)[C@H](CNC(=O)[C@@H](CC(=O)O)NC(=O)CCCCCNC(=O)CN2CCN3CCN4CCN(CC2)CC(=O)[O][Lu]([O]C(=O)C3)[O]C(=O)C4)N(C)C(=O)[C@H](Cc2ccccc2)NC1=O` [RB-0005734]: the Ki (read-out: SSTR2 Ki) was in the range of 1 to 3.33 nM. Consider `C[C@@H](O)[C@@H]1NC(=O)[C@H](CCCCN)NC(=O)[C@@H](Cc2c[nH]c3ccccc23)NC(=O)[C@H](Cc2ccc(O)cc2)NC(=O)[C@H](CNC(=O)C[C@@H](NC(=O)CCCCCNC(=O)CN2CCN3CCN4CCN(CC2)CC(=O)[O][Lu]([O]C(=O)C3)[O]C(=O)C4)C(=O)O)N(C)C(=O)[C@H](Cc2ccccc2)NC1=O` [RB-0005736], for which the Ki (read-out: SSTR2 Ki) lay within 3.33 to 10 nM. For the molecule `C[C@@H](O)[C@@H]1NC(=O)[C@H](CCCCN)NC(=O)[C@@H](Cc2c[nH]c3ccccc23)NC(=O)[C@H](Cc2ccc(O)cc2)NC(=O)[C@H](CCSCC(=O)NCCOCCOCCOCCNC(=O)CN2CCN3CCN4CCN(CC2)CC(=O)[O][Lu]([O]C(=O)C3)[O]C(=O)C4)N(C)C(=O)[C@H](COc2ccccc2)NC1=O` [RB-0005738], where the note is “read-out: SSTR2 Ki”, the Ki was under 1 nM.

Consider `C[C@@H](O)[C@@H]1NC(=O)[C@H](CCCCN)NC(=O)[C@@H](Cc2c[nH]c3ccccc23)NC(=O)[C@H](Cc2cc(F)c(O)c(F)c2)NC(=O)[C@H](CCSCC(=O)NCCCCCCNC(=O)CN2CCN3CCN4CCN(CC2)CC(=O)[O][Lu]([O]C(=O)C3)[O]C(=O)C4)N(C)C(=O)[C@H](Cc2ccccc2)NC1=O` [RB-0005740] (cyclo(F[NMehCys](DOTA(Lu)NH(CH2)6NHCOCH2)[Tyr(3,5-F2)][dW]KT)), for which the Ki (read-out: SSTR2 Ki) was under 1 nM. For the molecule `C[C@@H]1NC(=O)[C@H](CCCCN)NC(=O)[C@@H](Cc2c[nH]c3ccccc23)NC(=O)[C@H](Cc2ccc(O)cc2)NC(=O)[C@H](CCSCC(=O)NCCCCCCNC(=O)CN2CCN3CCN4CCN(CC2)CC(=O)[O][Lu]([O]C(=O)C3)[O]C(=O)C4)N(C)C(=O)[C@H](Cc2ccccc2)NC1=O` [RB-0005744] (cyclo(AF[NMehCys](DOTA(Lu)NH(CH2)6NHCOCH2)Y[dW]K)), the Ki (read-out: SSTR2 Ki) is under 1 nM. In the case of `C[C@@H](O)[C@@H]1NC(=O)[C@H](CC2CCNCC2)NC(=O)[C@@H]([C@@H](C)c2c[nH]c3ccccc23)NC(=O)[C@H](Cc2ccc(O)cc2)NC(=O)[C@H](CCCCNC(=O)CN2CCN3CCN4CCN(CC2)CC(=O)[O][Lu]([O]C(=O)C3)[O]C(=O)C4)N(C)C(=O)[C@H](Cc2ccccc2)NC1=O` [RB-0005797] (cyclo(F[NMeK](DOTA(Lu))Y[dTrp(βS-Me)][Ala(piperidin-4-yl)]T)), the Ki (read-out: SSTR2 Ki) was under 1 nM. As to `C[C@@H]1NC(=O)[C@H]([C@@H](C)O)NC(=O)[C@H](CC2CCNCC2)NC(=O)[C@@H]([C@@H](C)c2c[nH]c3ccccc23)NC(=O)[C@H](Cc2ccc(O)cc2)NC(=O)[C@H](CCSCC(=O)NCCCCCCNC(=O)CN2CCN3CCN4CCN(CC2)CC(=O)[O][Lu]([O]C(=O)C3)[O]C(=O)C4)N(C)C1=O` [RB-0005807] (cyclo(A[NMehCys](DOTA(Lu)NH(CH2)6NHCOCH2)Y[dTrp(βS-Me)][Ala(piperidin-4-yl)]T)), the Ki (read-out: SSTR2 Ki) is under 1 nM. On to `C[C@@H]1NC(=O)[C@H]([C@@H](C)O)NC(=O)[C@H](CC2CCNCC2)NC(=O)[C@@H](Cc2c[nH]c3ccccc23)NC(=O)[C@H](C(c2ccccc2)c2ccccc2)NC(=O)[C@H](CCSCC(=O)NCCCCCCNC(=O)CN2CCN3CCN4CCN(CC2)CC(=O)[O][Lu]([O]C(=O)C3)[O]C(=O)C4)N(C)C1=O` [RB-0005809] (cyclo(A[NMehCys](DOTA(Lu)NH(CH2)6NHCOCH2)[Dip][dW][Ala(piperidin-4-yl)]T)), for which the Ki (read-out: SSTR2 Ki) is 1 to 3.33 nM. `C[C@@H](O)[C@@H]1NC(=O)[C@@H](CCCCN)NC(=O)[C@@H](Cc2c[nH]c3ccccc23)NC(=O)[C@H](Cc2ccc(O)cc2)NC(=O)[C@H](CCSCC(=O)NCCCCCCNC(=O)CN2CCN3CCN4CCN(CC2)CC(=O)[O][Lu]([O]C(=O)C3)[O]C(=O)C4)N(C)C(=O)[C@H](Cc2ccccc2)NC1=O` [RB-0005827]: under “SSTR2 Ki”, the Ki is 10 to 33.3 nM. In the case of `C[C@@H](O)[C@@H]1NC(=O)[C@H](CCCCN)NC(=O)[C@@H](Cc2c[nH]c3ccccc23)NC(=O)[C@H](Cc2ccc(O)cc2)NC(=O)[C@H](C2CCN(C(=O)CCCCCNC(=O)CN3CCN4CCN5CCN(CC3)CC(=O)[O][Lu]([O]C(=O)C4)[O]C(=O)C5)CC2)N(C)C(=O)[C@H](Cc2ccccc2)NC1=O` [RB-0005852], for the setting “read-out: SSTR2 Ki”, the Ki lay within 33.3 to 100 nM. `C[C@@H](O)[C@@H]1NC(=O)[C@H](CCCCN)NC(=O)[C@@H](Cc2c[nH]c3ccccc23)NC(=O)[C@H](Cc2ccc(O)cc2)NC(=O)[C@H](CC2CCN(C(=O)CCCCCNC(=O)CN3CCN4CCN5CCN(CC3)CC(=O)[O][Lu]([O]C(=O)C4)[O]C(=O)C5)CC2)N(C)C(=O)[C@H](Cc2ccccc2)NC1=O` [RB-0005854]: the Ki (read-out: SSTR2 Ki) fell in the range of 10 to 33.3 nM. `C[C@@H](O)[C@@H]1NC(=O)[C@H](CCCCN)NC(=O)[C@H](Cc2c[nH]c3ccccc23)NC(=O)[C@H](Cc2ccc(O)cc2)NC(=O)[C@H](CCSCC(=O)NCCCCCCNC(=O)CN2CCN3CCN4CCN(CC2)CC(=O)[O][Lu]([O]C(=O)C3)[O]C(=O)C4)N(C)C(=O)[C@H](Cc2ccccc2)NC1=O` [RB-0005858]: under “SSTR2 Ki”, the Ki was 1 to 3.33 nM.

For the molecule `C[C@@H](O)[C@@H]1NC(=O)[C@H](CCCCN)NC(=O)[C@@H](Cc2c[nH]c3ccccc23)NC(=O)[C@H](Cc2ccc(O)cc2)NC(=O)[C@H](CCSCC(=O)NCCCCCCNC(=O)CN2CCN3CCN4CCN(CC2)CC(=O)[O][Lu]([O]C(=O)C3)[O]C(=O)C4)N(C)C(=O)[C@@H]2CCCN2C1=O` [RB-0005864] (cyclo(KTP[NMehCys](DOTA(Lu)NH(CH2)6NHCOCH2)Y[dW])), the Ki (read-out: SSTR2 Ki) fell in the range of 1 to 3.33 nM. The molecule `C[C@@H](O)[C@@H]1NC(=O)[C@H](CCCCN)NC(=O)[C@@H](Cc2c[nH]c3ccccc23)NC(=O)[C@H](Cc2ccc(O)cc2)NC(=O)[C@@H](CCSCC(=O)NCCCCCCNC(=O)CN2CCN3CCN4CCN(CC2)CC(=O)[O][Lu]([O]C(=O)C3)[O]C(=O)C4)N(C)C(=O)[C@H](Cc2ccccc2)NC1=O` [RB-0005866] registered a Ki (SSTR2 Ki) of 1 to 3.33 nM. `C[C@@H](O)[C@@H]1NC(=O)[C@H](CCCCN)NC(=O)[C@@H](Cc2c[nH]c3ccccc23)NC(=O)[C@H](Cc2ccc(O)cc2)NC(=O)[C@H](CC(=O)NCCCCCCNC(=O)CN2CCN3CCN4CCN(CC2)CC(=O)[O][Lu]([O]C(=O)C3)[O]C(=O)C4)N(C)C(=O)[C@H](Cc2ccccc2)NC1=O` [RB-0005895]: the Ki (read-out: SSTR2 Ki) was 3.33 to 10 nM.
